Laboratory results published in publication PMC6222422, “Synthesis and Biological Evaluation of Novel Indole-Derived Thioureas” (Molecules : A Journal of Synthetic Chemistry and Natural …, 2018).
Converted amounts (≈) assume the structure as drawn.

Tests used:
B. cereus ATCC 11778 [1] = experiment: disc diffusion method; type: cell-based, Bacillus cereus; conditions: Bacillus cereus, ATCC11778, applied 400 µg per disc, dash = lack of the growth inhibition area, read-out: diameter of growth inhibitory zone (GIZ)
Sb-1 = experiment: microbe, parasite or virus in culture; type: cell-based, poliovirus type-1; conditions: Enterovirus C, Vero 76, read-out: Sb-1 EC50
Reo-1 = experiment: microbe, parasite or virus in culture; type: cell-based, reovirus type-1; conditions: Reovirus sp., BHK, read-out: Reo-1 EC50
B. subtilis ATCC 6633 [2] = experiment: disc diffusion method; type: cell-based, Bacillus subtilis; conditions: Bacillus subtilis, ATCC6633, applied 400 µg per disc, dash = lack of the growth inhibition area, read-out: diameter of growth inhibitory zone (GIZ)
S. aureus ATCC 6538 [3] = experiment: disc diffusion method; type: cell-based, Staphylococcus aureus; conditions: Staphylococcus aureus, ATCC6538, applied 400 µg per disc, dash = lack of the growth inhibition area, read-out: diameter of growth inhibitory zone (GIZ)
S. aureus NCTC 4163 [4] = experiment: disc diffusion method; type: cell-based, Staphylococcus aureus; conditions: Staphylococcus aureus, NCTC4163, applied 400 µg per disc, dash = lack of the growth inhibition area, read-out: diameter of growth inhibitory zone (GIZ)
M. luteus ATCC 9341 [5] = experiment: MIC, twofold serial agar dilution; type: cell-based; conditions: Micrococcus luteus, ATCC9341, 18 h, 35 °C, read-out: minimal inhibitory concentrations (MIC)
B. subtilis ATCC 6633 [6] = experiment: MIC, twofold serial agar dilution; type: cell-based; conditions: Bacillus subtilis, ATCC6633, 18 h, 35 °C, read-out: minimal inhibitory concentrations (MIC)
in vitro [7] = conditions: cattle (Bos taurus)
M. luteus ATCC 10240 [8] = experiment: MIC, twofold serial agar dilution; type: cell-based; conditions: Micrococcus luteus, ATCC10240, 18 h, 35 °C, read-out: minimal inhibitory concentrations (MIC)
VV = experiment: microbe, parasite or virus in culture; type: cell-based; conditions: Orthopoxvirus vaccinia, Vero 76, read-out: VV EC50
S. aureus ATCC 6538 [9] = experiment: MIC, twofold serial agar dilution; type: cell-based; conditions: Staphylococcus aureus, ATCC6538, 18 h, 35 °C, read-out: minimal inhibitory concentrations (MIC)
CV-B5 = experiment: microbe, parasite or virus in culture; type: cell-based, coxsackievirus B5; conditions: Enterovirus B, CVB5, Vero 76, read-out: CV-B5 EC50
YFV = experiment: microbe, parasite or virus in culture; type: cell-based; conditions: Yellow fever virus, BHK, read-out: YFV EC50
S. epidermidis (MRSE) = experiment: MIC against hospital strains; conditions: Staphylococcus epidermidis
BVDV = experiment: microbe, parasite or virus in culture; type: cell-based, bovine viral diarrhoea virus; conditions: for EC50: Bovine viral diarrhea virus isolates and strains, MDBK, in Bos taurus, read-out: BVDV EC50
RSV = experiment: microbe, parasite or virus in culture; type: cell-based, human respiratory syncytial virus; conditions: for EC50: human respiratory syncytial virus, Vero 76, read-out: RSV EC50
VSV = experiment: microbe, parasite or virus in culture; type: cell-based; conditions: Vesicular stomatitis virus, Vero 76, read-out: VSV EC50
in vitro [10] = conditions: human
S. aureus NCTC 4163 [11] = experiment: MIC, twofold serial agar dilution; type: cell-based; conditions: Staphylococcus aureus, NCTC4163, 18 h, 35 °C, read-out: minimal inhibitory concentrations (MIC)
in vitro [12] = conditions: Syrian hamster (Mesocricetus auratus)
in vitro [13] = conditions: African green monkey (Cercopithecus aethiops)
HSV-1 = experiment: microbe, parasite or virus in culture; type: cell-based, human herpes 1; conditions: Human alphaherpesvirus 1, Vero 76, read-out: HSV-1 EC50
M. luteus ATCC 9341 [14] = experiment: disc diffusion method; type: cell-based, Micrococcus luteus; conditions: Micrococcus luteus, ATCC9341, applied 400 µg per disc, dash = lack of the growth inhibition area, read-out: diameter of growth inhibitory zone (GIZ)
S. aureus ATCC 25923 [15] = experiment: disc diffusion method; type: cell-based, Staphylococcus aureus; conditions: Staphylococcus aureus, ATCC25923, applied 400 µg per disc, dash = lack of the growth inhibition area, read-out: diameter of growth inhibitory zone (GIZ)
S. aureus ATCC 25923 [16] = experiment: MIC, twofold serial agar dilution; type: cell-based; conditions: Staphylococcus aureus, ATCC25923, 18 h, 35 °C, read-out: minimal inhibitory concentrations (MIC)
M. luteus ATCC 10240 [17] = experiment: disc diffusion method; type: cell-based, Micrococcus luteus; conditions: Micrococcus luteus, ATCC10240, applied 400 µg per disc, dash = lack of the growth inhibition area, read-out: diameter of growth inhibitory zone (GIZ)
HIV-1 = experiment: microbe, parasite or virus in culture; conditions: Human immunodeficiency virus 1, MT4, read-out: HIV-1 EC50
B. cereus ATCC 11778 [18] = experiment: MIC, twofold serial agar dilution; type: cell-based; conditions: Bacillus cereus, ATCC11778, 18 h, 35 °C, read-out: minimal inhibitory concentrations (MIC)
Cytotoxicity, MTT method [19] = conditions: Syrian hamster (Mesocricetus auratus)
Cytotoxicity, MTT method [20] = conditions: African green monkey (Cercopithecus aethiops)
Cytotoxicity, MTT method [21] = conditions: human
Cytotoxicity, MTT method [22] = conditions: cattle (Bos taurus)

C=C(C)CNC(=S)NCCc1c[nH]c2ccccc12 [Compound 19, 1-(2-(1H-Indol-3-yl)ethyl)-3-(2-methylallyl)thiourea]
zone of inhibition at 400 µg/disc (B. cereus ATCC 11778 [1]): 13 mm
EC50 (Sb-1): > 89 µM
EC50 (Reo-1): > 35 µM
zone of inhibition at 400 µg/disc (B. subtilis ATCC 6633 [2]): 13 mm
zone of inhibition at 400 µg/disc (S. aureus ATCC 6538 [3]): 11 mm
zone of inhibition at 400 µg/disc (S. aureus NCTC 4163 [4]): 12 mm
MIC (M. luteus ATCC 9341 [5]): 200 µg/mL (≈ 732 µM)
MIC (B. subtilis ATCC 6633 [6]): 400 µg/mL (≈ 1460 µM)
CC50 (in vitro [7]): > 100 µM
MIC (M. luteus ATCC 10240 [8]): 50 µg/mL (≈ 183 µM)
EC50 (VV): > 89 µM
MIC (S. aureus ATCC 6538 [9]): 200 µg/mL (≈ 732 µM)
melting point: 141 to 143 °C
EC50 (CV-B5): > 89 µM
EC50 (YFV): > 35 µM
MIC (S. epidermidis (MRSE); hospital S. epidermidis MRSE strain 430/11): 12.5 µg/mL (≈ 45.7 µM)
MIC (S. epidermidis (MRSE); hospital S. epidermidis MRSE strain 431/11): 100 µg/mL (≈ 366 µM)
MIC (S. epidermidis (MRSE); hospital S. epidermidis MRSE strain 432/11): 12.5 µg/mL (≈ 45.7 µM)
MIC (S. epidermidis (MRSE); hospital S. epidermidis MRSE strain 433/11): 50 µg/mL (≈ 183 µM)
MIC (S. epidermidis (MRSE); hospital S. epidermidis MRSE strain 434/11): 12.5 µg/mL (≈ 45.7 µM)
MIC (S. epidermidis (MRSE); hospital S. epidermidis MRSE strain 435/11): 50 µg/mL (≈ 183 µM)
MIC (S. epidermidis (MRSE); hospital S. epidermidis MRSE strain 436/11): 100 µg/mL (≈ 366 µM)
MIC (S. epidermidis (MRSE); hospital S. epidermidis MRSE strain 437/11): 200 µg/mL (≈ 732 µM)
MIC (S. epidermidis (MRSE); hospital S. epidermidis MRSE strain 438/11): 100 µg/mL (≈ 366 µM)
MIC (S. epidermidis (MRSE); hospital S. epidermidis MRSE strain 439/11): 50 µg/mL (≈ 183 µM)
EC50 (BVDV): ≥ 100 µM
EC50 (RSV): > 89 µM
EC50 (VSV): > 89 µM
CC50 (in vitro [10]): > 100 µM
MIC (S. aureus NCTC 4163 [11]): 400 µg/mL (≈ 1460 µM)
CC50 (in vitro [12]): 35 µM
CC50 (in vitro [13]): 89 µM
EC50 (HSV-1): > 89 µM
zone of inhibition at 400 µg/disc (M. luteus ATCC 9341 [14]): 13 mm
zone of inhibition at 400 µg/disc (S. aureus ATCC 25923 [15]): 12 mm
MIC (S. aureus ATCC 25923 [16]): 400 µg/mL (≈ 1460 µM)
zone of inhibition at 400 µg/disc (M. luteus ATCC 10240 [17]): 14 mm
EC50 (HIV-1): > 100 µM
MIC (B. cereus ATCC 11778 [18]): 200 µg/mL (≈ 732 µM)

Cc1ccc(NC(=S)NCCc2c[nH]c3ccccc23)cc1 [Compound 3, 1-(2-(1H-Indol-3-yl)ethyl)-3-(4-methylphenyl)thiourea]
EC50 (Sb-1): > 75 µM
EC50 (Reo-1): > 16 µM
EC50 (VV): > 75 µM
CC50 (Cytotoxicity, MTT method [19]): 16 µM
EC50 (CV-B5): > 75 µM
CC50 (Cytotoxicity, MTT method [20]): 75 µM
EC50 (YFV): > 16 µM
EC50 (BVDV): ≥ 100 µM
CC50 (Cytotoxicity, MTT method [21]): 33 µM
activity against RSV (in words) (RSV): moderately active
EC50 (RSV): 20 ± 3 µM
EC50 (VSV): > 75 µM
EC50 (HSV-1): > 75 µM
CC50 (Cytotoxicity, MTT method [22]): > 100 µM
EC50 (HIV-1): > 33 µM

Cc1ccc(Cl)cc1NC(=S)NCCc1c[nH]c2ccccc12 [Compound 26, 1-(2-(1H-Indol-3-yl)ethyl)-3-(3-chloro-6-methylphenyl)thiourea]
EC50 (Sb-1): > 17 µM
EC50 (Reo-1): > 12 µM
CC50 (in vitro [7]): 42 µM
EC50 (VV): > 17 µM
melting point: 163 to 165 °C
EC50 (CV-B5): > 17 µM
EC50 (YFV): > 12 µM
activity against BVDV (in words) (BVDV): showed activity
EC50 (BVDV): 15 ± 1.2 µM
EC50 (RSV): > 17 µM
EC50 (VSV): > 17 µM
CC50 (in vitro [10]): 45 µM
CC50 (in vitro [12]): 12 µM
CC50 (in vitro [13]): 17 µM
EC50 (HSV-1): > 17 µM
EC50 (HIV-1): > 45 µM

S=C(NCCc1c[nH]c2ccccc12)Nc1cccc(Br)c1 [Compound 7, 1-(2-(1H-Indol-3-yl)ethyl)-3-(3-bromophenyl)thiourea]
EC50 (Sb-1): > 12 µM
EC50 (Reo-1): > 10 µM
CC50 (in vitro [7]): 55 µM
EC50 (VV): > 12 µM
melting point: 152 to 154 °C
EC50 (CV-B5): > 12 µM
EC50 (YFV): > 10 µM
activity against BVDV (in words) (BVDV): showed activity
EC50 (BVDV): 20 ± 2 µM
EC50 (RSV): > 12 µM
EC50 (VSV): > 12 µM
CC50 (in vitro [10]): 45 µM
CC50 (in vitro [12]): 10 µM
CC50 (in vitro [13]): 12 µM
EC50 (HSV-1): > 12 µM
EC50 (HIV-1): > 45 µM
